Columns and labels:
HeLa-Cells [1] = assay: In vitro transfection with liposomes encapsulating carboxyfluorescein (Example 11); type: cell-based; conditions: 0.05 mM CF/well, 4 hours, FIG. 17, 18
Procedure: HeLa-Cells were obtained from DSMZ (German Collection of Micro Organism and Cell Cultures) and maintained in DMEM. Media were purchased from Gibco-Invitrogen and supplemented with 10% FCS at 37° C. under 5% CO2. The cells were plated at a density of 4×10^4 cells/ml and cultivated in 100 μl medium. After 16 h the media were replaced with Opti-MEM I (Gibco) containing liposomes (L-46-L-49) with a total amount of 0.05 mM CF/well. Cell culture dishes were incubated for 4 hours at 37° C. under 5% CO2. Transfection efficiency and cellular distribution was determined after 4 hours by fluorescence microscopy with an exposure time of 5 seconds and using the 10/100 fold objective (Axionvert S 100, Carl Zeiss Inc.). Before imaging cells were washed several times (5×) with PBS pH7.4 and analysed directly (incubation time 20 to 30 sec.) in 50 μl PBS pH7.4. As control free CF (0.1 mM) in PBS was added to the cells.

HeLa-Cells [2] = assay: In vitro transfection with liposomes encapsulating carboxyfluorescein, fluorescence microscopy (Example 5); type: cell-based; conditions: 0.5 mM CF/well, FIG. 7-11
Procedure: HeLa-Cells were obtained from DSMZ (German Collection of Micro Organism and Cell Cultures) and maintained in DMEM. Media were purchased from Gibco-Invitrogen and supplemented with 10% FCS at 37° C. under 5% CO2. The cells were plated at a density of 2×10^4 cells/ml and cultivated in 100 μl medium. After 16 h the media were replaced with Opti-MEM I (Gibco) containing liposomes (L1-L24) with a total amount of 50 to 200 ng Cy3-labelled oligonucleotides or 0.5 mM CF/well. Cell culture dishes were centrifuged for 1 h at 450 g at 37° C., followed by an incubation of 3 h hours at 37° C. under 5% CO2. The transfection mixture was replaced by the above mentioned medium and cells were incubated for further 24-48 h hours. Transfection efficiency and cellular distribution was determined after 4 or 24 hours by light and fluorescence microscopy using objectives with 10× or 40× magnification (Axionvert S 100, Carl Zeiss Inc.).

## carboxyfluorescein [free carboxyfluorescein]
HeLa-Cells [1]
  fluorescence signal of carboxyfluorescein: no fluorescence signal was observed
HeLa-Cells [2]
  fluorescence signal of carboxyfluorescein in cytosol or nucleus: do not show any fluorescence signals

— patent US8193246B2, “Lipids and lipid assemblies comprising transfection enhancer elements” (Marina Biotech, Inc., priority 2006, dated 2012)
